Experimental data as given in patent publication EP0795549A1, “Bis-aryloxy(amino)-triazinyl-oxy(amino)aryl derivatives, their preparation and their use as antiviral agents” (American Cyanamid Company, priority 1996, dated 1997).

Tests used:
[1] = system: RSV (A2); assay: viral yield reduction (growth inhibition) assay, RSV; assay type: cell-based, Respiratory Syncitial Virus; conditions: for Antiviral IC50 µg/ml RSV/ Vero: format not given
Method: (§1) The compounds were tested for biological activity using viral yield reduction assays. Host cells (indicated as HF for human foreskin fibroblasts and as vero, the commonly used African green monkey cell line, in Tables 1 and 1a) were plated at 4 x 10^4 cells/well in cell growth medium with 2% fetal bovine serum or 2% calf serum in 96-well plates (0.1 ml/well) and incubated overnight. The compounds were added to individual wells to give final concentrations ranging from 50 to 0.1 µg/ml in two-fold concentration steps. After 1 hour, virus was added, and the incubation was continued for 4 days with RSV or CMV and for 2 days with HSV. At the end of the experiment, the amount of virus growth was quantitated and the yield reduction at various concentrations of compound was calculated. This allows estimation of the concentration of compound giving 50% reduction in virus growth (IC50).

[2] = system: CMV (Ad169); assay: viral yield reduction (growth inhibition) assay, CMV; assay type: cell-based, Cytomegalovirus; conditions: HF, format not given; for Antiviral IC50 µg/ml CMV /HF: Table 1a
Method: as §1

[3] = system: human foreskin fibroblasts (HF); assay: effect on cells: appearance of fixed, crystal violet-stained monolayer (HF); assay type: cell-based; design: key: N, no effect on the appearance of the alcohol-fixed and crystal violet-stained cell monolayer at the indicated compound concentration.; L, lightening of the intensity of staining (compared to controls) of the alcohol-fixed and crystal violet-stained cell monolayer at the indicated compound concentration but not at half that concentration
[4] = system: HSV1 (Patton); assay: viral yield reduction (growth inhibition) assay, HSV; assay type: cell-based, Herpes Simplex Virus; conditions: for Antiviral IC50 µg/ml HSV Vero: Table 1a, HSV1 (Patton), format not given
Method: as §1

[5] = system: vero cells; assay: effect on cells: appearance of fixed, crystal violet-stained monolayer (vero); assay type: cell-based, African green monkey; design: key: N, no effect on the appearance of the alcohol-fixed and crystal violet-stained cell monolayer at the indicated compound concentration.; L, lightening of the intensity of staining (compared to controls) of the alcohol-fixed and crystal violet-stained cell monolayer at the indicated compound concentration but not at half that concentration; conditions: at 75 µg/ml
[6] = system: HSV1 (Patton); assay: viral plaque reduction assay, HSV1; assay type: cell-based, Herpes Simplex Virus; conditions: HSV1 (Patton), vero host cells
[7] = Table 1a, HF, yield reduction or plaque format not specified

| Molecule | Antiviral IC50 µg/ml RSV/ HF [1, 7] | Antiviral IC50 µg/ml RSV/ Vero ([1]; Table 1a) | Antiviral IC50 µg/ml CMV /HF [2] | Effect on cells @ µg/ml indicated HF ([3]; at 75 µg/ml) | Antiviral IC50 µg/ml HSV Vero [4] | Effect on cells @ µg/ml indicated Vero [5] | also measured |
| --- | --- | --- | --- | --- | --- | --- | --- |
| 1,2',1'',1'''-[(2,2'-disulfo[1,1'-biphenyl]-4,4'-diyl)-bis[imino-1,3,5-triazine-6,2,4-triylbis(imino-3,1-phenylenesulfonyl)]tetrakis[3,5-piperidinedicarboxylic acid [Example 54] | 35 µg/mL | >50 µg/mL | >50 µg/mL | N@75 |  |  |  |
| 4',4-Bis-{4,6-bis-[3-(3,5-dicarbamoyl-piperidine-1-sulfonyl)-phenylamino]-[1,3,5]triazin-2-ylamino}-biphenyl-2,2'disulfonic acid, disodium salt [Example 53] | 2 µg/mL | 7 µg/mL |  | N@75 | >50 µg/mL | N@75 |  |
| 4',4-Bis-{4,6-bis-[3-(bis-carbamoylmethyl-1-sulfamoyl)-phenylamino]-[1,3,5]triazin-2-ylamino}-biphenyl-2,2'-disulfonic acid, disodium salt [Example 43] | 0.1 µg/mL |  | 2.5 µg/mL | N@75 | 6 µg/mL | N@75 |  |
| 4,4'-Bis-(4,6-bis-{3-[bis-(2-methylcarbamoyl-ethyl)-sulfamoyl]-phenylamino}-[1,3,5]triazin-2-ylamino)-biphenyl-2,2'-dicarboxylic acid, disodium salt [Example 35] | 6 µg/mL |  | >50 µg/mL |  | >50 µg/mL | N@75 |  |
| 4,4'-Bis-(4,6-bis{3-[bis-(2-carbamoyl-ethyl)-sulfamoyl]-phenylamino}- 1,3,5-triazin-2-ylamino]-biphenyl-2,2'-dicarboxylic acid, disodium salt [Example 30] | 0.35 µg/mL |  | 40 µg/mL | N@75 | >50 µg/mL |  |  |
| 4,4'-Bis-[[4,6-bis-[[3-[[bis-[3-(methylamino)-3-oxopropyl]amino]sulfonyl]phenyl]amino]-1,3,5-triazin-2-yl]amino] [1,1'-biphenyl]-2,2'-disulfonic acid, disodium salt [Example 34] | 1.2 µg/mL |  | >50 µg/mL | N@75 | >50 µg/mL | L@75 |  |
| 4,4'Bis-(4,6-bis-{3-[bis-(2-hydroxy-propyl)-sulfamoyl]-phenylamino}-[1,3,5]triazin-2-ylamino)biphenyl-2,2'-disulfonic acid, disodium salt [Example 40] | 0.2 µg/mL |  | 4 µg/mL | N@75 | 20 µg/mL | N@75 |  |
| 4,4'Bis[4,6-di[3-aminophenyl-N,N-bis(2-hydroxyethyl)sulfonylimino]-1,3,5-triazin-2-ylamino]-stilbene-2,2'-disulfonic acid, disodium salt [Example 5] |  |  |  |  |  |  | IC50 µG/mL IN GROWTH […]/ VERO ([1]; vero host cells): 0.4 µg/mL; IC50µG/mL IN PLAQUE ASSAY HSV/ VER O [6]: 8 µg/mL |
| O=C([O-])c1cc(Nc2nc(Nc3cccc(S(=O)(=O)N(CCO)CCO)c3)nc(Nc3cccc(S(=O)(=O)N(CCO)CCO)c3)n2)ccc1-c1ccc(Nc2nc(Nc3cccc(S(=O)(=O)N(CCO)CCO)c3)nc(Nc3cccc(S(=O)(=O)N(CCO)CCO)c3)n2)cc1C(=O)[O-].[Na+].[Na+] [Example 57, 4,4'-Bis-(4,6-bis-{3-[bis-(2-hydroxyethyl)-sulfamoyl]-phenylamino}-[1,3,5]-triazin-2-ylamino)biphenyl-2,2'dicarboxylic acid, disodium salt] |  |  |  |  |  | N@75 | IC50 ([1]; human respiratory syncytial virus, Table 1a, HF, yield reduction or plaque format not specified, read-out: Antiviral IC50 µg/ml RSV/ HF): 1.5 µg/mL; IC50 ([2]; Human betaherpesvirus 5, Table 1a, read-out: Antiviral IC50 µg/ml CMV /HF): 4 µg/mL; IC50 ([4]; Human alphaherpesvirus 1, Vero, read-out: Antiviral IC50 µg/ml HSV Vero): 30 µg/mL |
| (E)-2,2'-(1,2-Ethenediyl)bis[5-[[4,6-bis[[3-[[3,5-bis(aminocarbonyl)-1-piperedinyl]sulfonyl]phenyl]amino]-1,3,5-triazin-2-yl]benzenesulfonic acid], disodium salt [Example 52] | 1.5 µg/mL | 1.5 µg/mL |  |  |  |  | Effect on cells @ µg/ml indicated HF ([3]; at 37 µg/ml): L@37 |
